Laboratory results as given in patent US8865704B2, “Wnt pathway antagonists” (Siena Biotech S.p.A., priority 2009, dated 2014).

Tests used:
Wnt/β-catenin pathway = assay: Wnt reporter assay (TCF-Luciferase, Firefly) in DBTRG-05MG cells; type: cell-based; details: Homo sapiens, 24 hours after compound addition
In short: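 DBTRG-05MG cells carrying a 4×TCF-driven firefly luciferase reporter, kept under Zeocin or Zeocin plus Hygromicin selection. Compounds added 36 hours after plating at 8 points from 60 μM to 0.185 μM (0.6% DMSO), triplicate, for 24 hours. Firefly and Renilla luminescence each expressed as % of control; IC50 from four-parameter sigmoid fit.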

DBTRG cells = assay: Soft agar anchorage independent assay; type: cell-based; details: 504 h, colonies scored 3 weeks later, read-out: 1050 value in the soft agar assay
Protocol: The pharmacological activity of the compounds of the invention may be tested in vitro for growth inhibition against tumour cell lines. Such cell lines may, for example be representative of glioblastoma (such as DBTRG-05MG), or colorectal (for example DLD-1, HCT116) cancer. The different genetic background of the cancer cell will facilitate to understand to which level of the pathway the compounds work. If the cells harbour a truncated APC allele, the destruction complex activity is affected; if cells carry a gain of function mutation in the β-catenin gene, which prevents β-catenin protein degradation, this leads to constitutive activation of downstream genes. There are many assays available for testing the growth inhibition.
Soft Agar Anchorage Independent Assay
DBTRG cells were seeded into a 24-well format in the presence of carrier alone or compound (0.6% DMSO (v/v)). Each well is composed of two agar layers: the bottom layer consists of 0.6% Agar while the top has 0.35% Agar plus cells and compound. Cells (2500 per well) were incubated with 7 points dilution compound the day of the plating and the colonies were scored 3 weeks later after o/n staining with MTT solution. Imaging and counting of the colonies was done with the GelCount™ instrument (Oxford Optronix, UK). For IC50 determination the data were expressed as % of control, values were calculated using XLFit version 4.2, with a four parameters sigmoid function (XLFit model 205).

Structure (SMILES)	IC50 (Wnt/β-catenin pathway) [µM]	IC50 (DBTRG cells) [µM]
COc1ccc2[nH]c(=O)n(C[C@H]3CC[C@H](C(=O)N4CCN(C(=O)C(C)C)CC4)CC3)c(=O)c2c1 [Example 3, 3-[trans-4-(4-Isobutyryl-piperazine-1-carbonyl)-cyclohexylmethyl]-6-methoxy-1H-quinazoline-2,4-dione]	0.3 to 30	0.9 to 30
CCCC(=O)N1CCN(C(=O)[C@H]2CC[C@H](Cn3c(=O)c4ccccc4n(C)c3=O)CC2)CC1 [Example 5, 3-[trans-4-(4-Butyryl-piperazine-1-carbonyl)-cyclohexylmethyl]-1-methyl-1H-quinazoline-2,4-dione]	0.3 to 30	0.9 to 30
Cn1c(=O)n(C[C@H]2CC[C@H](C(=O)N3CCOCC3)CC2)c2cc(C(F)(F)F)ccc21 [Example 10, 1-Methyl-3-[trans-4-(morpholine-4-carbonyl)-cyclohexylmethyl]-5-trifluoromethyl-1,3-dihydro-benzoimidazol-2-one]	0.3 to 30	0.9 to 30
O=C(C1CCC(Cn2c(=O)[nH]c3ccccc3c2=O)CC1)N1CCN(c2ccccc2)CC1 (stereo not shown) [Example 18]	0.3 to 30	0.9 to 30
O=c1[nH]c2ccccc2c(=O)n1C[C@H]1CC[C@H](C(=O)N2CCN(c3ccc(F)cc3)CC2)CC1 [Example 20]	0.3 to 30	0.9 to 30
COc1ccccc1N1CCN(C(=O)[C@H]2CC[C@H](Cn3c(=O)[nH]c4ccccc4c3=O)CC2)CC1 [Example 21]	0.3 to 30	0.9 to 30
O=c1[nH]c2ccc(Cl)cc2c(=O)n1C[C@H]1CC[C@H](C(=O)N2CCN(c3ccccc3)CC2)CC1 [Example 26]	0.3 to 30	0.9 to 30
CC(=O)N1CCN(C(=O)[C@H]2CC[C@H](Cn3c(=O)[nH]c4ccc(Cl)cc4c3=O)CC2)CC1 [Example 27]	0.3 to 30	0.9 to 30
O=C(C1CCCC1)N1CCN(C(=O)[C@H]2CC[C@H](Cn3c(=O)[nH]c4ccccc4c3=O)CC2)CC1 [Example 29]	0.3 to 30	0.9 to 30
O=C(c1cccs1)N1CCN(C(=O)[C@H]2CC[C@H](Cn3c(=O)[nH]c4ccccc4c3=O)CC2)CC1 [Example 37]	0.3 to 30	0.9 to 30
O=C(C1CCC(Cn2c(=O)[nH]c3ccccc3c2=O)CC1)N1CCN(C(=O)C2CC2)CC1 (stereo not shown) [Example 47]	0.3 to 30	0.9 to 30
O=C(c1ccco1)N1CCN(C(=O)C2CCC(Cn3c(=O)[nH]c4ccccc4c3=O)CC2)CC1 (stereo not shown) [Example 48]	0.3 to 30	0.9 to 30
Cn1c(=O)n(C[C@H]2CC[C@H](C(=O)N3CCN(C(=O)C4CC4)CC3)CC2)c(=O)c2ccccc21 [Example 56]	0.3 to 30	0.9 to 30
O=c1[nH]c2ccccc2c(=O)n1C[C@H]1CC[C@H](C(=O)N2CCN(c3cnccn3)CC2)CC1 [Example 57]	0.3 to 30	0.9 to 30
CC(C)C(=O)N1CCN(C(=O)[C@H]2CC[C@H](Cn3c(=O)[nH]c4ccccc43)CC2)CC1 [Example 58]	0.3 to 30	0.9 to 30
O=C(CC1CCCCC1)N1CCN(C(=O)[C@H]2CC[C@H](Cn3c(=O)[nH]c4ccccc4c3=O)CC2)CC1 [Example 59]	0.3 to 30	0.9 to 30
O=C(C1CCC1)N1CCN(C(=O)[C@H]2CC[C@H](Cn3c(=O)[nH]c4ccccc4c3=O)CC2)CC1 [Example 60]	0.3 to 30	0.9 to 30
COCC(=O)N1CCN(C(=O)[C@H]2CC[C@H](Cn3c(=O)c4cc(OC)ccc4n(C)c3=O)CC2)CC1 [Example 66]	0.3 to 30	0.9 to 30
COc1ccc2c(c1)CN(C[C@H]1CC[C@H](C(=O)N3CCN(C(=O)C4CC4)CC3)CC1)C(=O)N2 [Example 71]	0.3 to 30	0.9 to 30

Second part, the molecule after the results:

IC50 (Wnt/β-catenin pathway) [µM]	IC50 (DBTRG cells) [µM]	Structure (SMILES)
0.3 to 30	0.9 to 30	COc1ccc2[nH]c(=O)n(C[C@H]3CC[C@H](C(=O)N4CCN(C(=O)C5CC5)CC4)CC3)c(=O)c2c1 [Example 75]
0.3 to 30	0.9 to 30	COCC(=O)N1CCN(C(=O)[C@H]2CC[C@H](Cn3c(=O)[nH]c4ccc(OC)cc4c3=O)CC2)CC1 [Example 77]
0.3 to 30	0.9 to 30	COc1ccc2c(c1)c(=O)n(C[C@H]1CC[C@H](C(=O)N3CCN(C(=O)C4CC4)CC3)CC1)c(=O)n2C [Example 78]
0.3 to 30	0.9 to 30	O=C(C1CC1)N1CCN(C(=O)[C@H]2CC[C@H](Cn3c(=O)c4ccccc4n(CCF)c3=O)CC2)CC1 [Example 79]
0.3 to 30	0.9 to 30	Cn1c(=O)n(C[C@H]2CC[C@H](C(=O)N3CCN(C(=O)C4CC4)CC3)CC2)c2ccccc21 [Example 80]
0.3 to 30	0.9 to 30	COc1ccc2c(c1)c(=O)n(C[C@H]1CC[C@H](C(=O)N3CCN(C)C(=O)C3)CC1)c(=O)n2C [Example 92]
0.3 to 30	0.9 to 30	COc1ccc2[nH]c(=O)n(C[C@H]3CC[C@H](C(=O)N4CCN(C(C)=O)CC4)CC3)c(=O)c2c1 [Example 99]
0.3 to 30	0.9 to 30	COc1ccc2[nH]c(=O)n(C[C@H]3CC[C@H](C(=O)N4CCN(C(=O)[C@H]5CCCO5)CC4)CC3)c(=O)c2c1 [Example 109]
0.3 to 30	0.9 to 30	COC(=O)N1CCN(C(=O)[C@H]2CC[C@H](Cn3c(=O)[nH]c4ccc(OC)cc4c3=O)CC2)CC1 [Example 116]
0.3 to 30	0.9 to 30	COc1ccc2c(c1)c(=O)n(C[C@H]1CC[C@H](C(=O)N3CCN(C(=O)c4cncn4C)CC3)CC1)c(=O)n2C [Example 122]
0.3 to 30	0.9 to 30	COc1ccc2c(c1)n(C[C@H]1CC[C@H](C(=O)N3CCN(C(=O)C4CC4)CC3)CC1)c(=O)n2C [Example 135]
0.3 to 30	0.9 to 30	COc1ccc2c(c1)c(=O)n(C[C@H]1CC[C@H](C(=O)N3CCN(C(C)=O)CC3)CC1)c(=O)n2C [Example 136]
0.3 to 30	0.9 to 30	COc1ccc2c(c1)c(=O)n(C[C@H]1CC[C@H](C(=O)N3CCN(C(=O)c4ccno4)CC3)CC1)c(=O)n2C [Example 146]
0.3 to 30	0.9 to 30	Cc1ccc2c(n1)n(C[C@H]1CC[C@H](C(=O)N3CCN(C(=O)C4CC4)CC3)CC1)c(=O)n2C [Example 169]
0.3 to 30	0.9 to 30	COC(=O)N1CCN(C(=O)[C@H]2CC[C@H](Cn3c(=O)c4cc(OC)ccc4n(C)c3=O)CC2)CC1 [Example 175]
0.3 to 30		CC(=O)N1CCN(C(=O)[C@H]2CC[C@H](Cn3c(=O)n(C)c4ccc(C)nc43)CC2)CC1 [Example 207]
0.3 to 30		COCC(=O)N1CCN(C(=O)[C@H]2CC[C@H](Cn3c(=O)n(C)c4ccc(OC)nc43)CC2)CC1 [Example 208]
0.3 to 30		COc1cccc(NC(=O)[C@H]2CC[C@H](Cn3c(=O)n(C)c4ccc(OC)nc43)CC2)c1 [Example 209]
0.3 to 30		COc1ccc2c(c1)n(C[C@H]1CC[C@H](C(=O)N3CCN(C(=O)c4cc(C)nn4C)CC3)CC1)c(=O)n2C [Example 210]
0.3 to 30		COc1ccc2c(c1)n(C[C@H]1CC[C@H](C(=O)N3CCN(C(=O)c4nccn4C)CC3)CC1)c(=O)n2C [Example 211]
